# Laboratory results taken from patent publication US11230526B1, “Cylcoalkenyl derivatives useful as agonists of the GPR120 and/or GPR40 receptors” (Janssen Pharmaceutica NV, priority 2018, dated 2022).
# pEC50: −log10 of the molar value.
# Molecular target: T1, short form of the GPR120 receptor (Homo sapiens, UniProt Q5NUL3)
# T1 construct: host or cells: PathHunter CHO-K1 GPR120S β-Arrestin Cell Line
# Assay: Human GPR120 DiscoveRx PathHunter Beta-Arrestin assay, Procedure β-arrestin B
# Assay type: cell-based
# From the text: Human GPR120 DiscoveRx PathHunter® Beta-Arrestin Assay Assay Principle:
# The binding of an agonist (medium/long chain fatty acids or small molecule agonists) to the G-protein-coupled receptor GPR120 activates phospholipase C, leading to release of intracellular Ca^+2 through the generation of inositol 1,4,5-trisphosphate (InsP3 or IP3). GPR120 activation can also trigger intracellular signaling via recruitment of Beta-Arrestin. In the present method, agonist-induced activation of the human GPR120 receptor is monitored through the use of PathHunter® CHO-K1 GPR120 Beta-Arrestin Cell Line engineered by DiscoveRx, as detailed below. The cell lines are designed to co-express both the ProLink/Enzyme Donor (PK)-tagged GPCR and the Enzyme […] (EA)-tagged Beta-Arrestin fusion proteins. Upon GPR120 receptor stimulation/activation, the EA-tagged Beta-Arrestin portion is translocated to the tagged receptor, where the two enzyme fragments are brought within close proximity. Under these conditions, these fragments can interact and form an active Beta-gal enzyme complex through Enzyme Fragment Complementation (EFC). This active Beta-gal complex can enzymatically hydrolyse the substrate to produce a detectable light signal; therefore, activation as a function of agonist concentration can be expressed as an EC50 value to determine relative compound activities. This in vitro assay therefore serves to assess compound agonist activity of the GPR120.
# In Procedure β-arrestin B the cells used were PathHunter® CHO-K1 GPR120S β-Arrestin Cell Line, expressing the short form of the GPR120 receptor (Accession #[…]), with 5000 cells/well.
# The selected CHO-K1 GPR120 β-Arrestin cells were cultured in Ham's F12 media supplemented with 10% fetal bovine serum (FBS), 1% Glutamine, 1×p/s, 800 μg/mL G418 and 300 μg/mL Hygromycin B (for selection). Cell stocks were maintained and grown in a sub-confluent state using standard cell culture procedures. The day before the experiment, the cells were harvested with non-enzymatic cell dissociation buffer and re-suspended in complete growth media at the desired concentration. A Corning 384-plate was then seeded with the proper number of cells in a volume of 25 μL, per well. The seeded plates were incubated overnight at 37° C.
# On the day of the experiment, the Assay Buffer containing (a) HBSS with Ca^++ and Mg^++, (b) 20 mM HEPES, and (c) 0.1% BSA stabilizer (pH 7.4) was prepared. The growth medium was gently removed from the cell plates and 20 μL of Assay Buffer added to each well. The plate was then incubated at 37° C. for 60 min. Test compounds were serially diluted in Assay Buffer to desired concentrations (more particularly to one or more of the following μM concentrations: 25, 12.5, 6.25, 3.12, 1.56, 0.78, 0.39, 0.19, 0.10, 0.05, 0.02, 0.01). Five μL of compound dilution was then added to each well and the plate incubated at 37° C. for 90 min. The detection reagents were prepared according to the manufacture's instruction. Twelve μL of the detection reagents were added to each well and the plate incubated at room temperature for 60 min.
# The plates were read on an EnVision instrument, using Protocol name: Luminescence, Plate type: 384 Costar, Measurement height: 3 mm, Measurement time: 1 s, Aperture: 384 Plate aperture. The % Activity relative to the positive control was calculated using the following equation:
# The % Activity values were plotted versus the concentration of test compound and fitted to a sigmoidal dose-response curve with a Hill slope=1 (fixed value) using nonlinear regression with GraphPad Prism 5.0 to calculate the EC50 values. The Fitting Equation was: Y=Bottom+(Top-Bottom)/(1+10^((Log EC50−X)*HillSlope)), where X is the log of the concentration and Y is the response.
# T1 sequence (Q5NUL3 whole entry): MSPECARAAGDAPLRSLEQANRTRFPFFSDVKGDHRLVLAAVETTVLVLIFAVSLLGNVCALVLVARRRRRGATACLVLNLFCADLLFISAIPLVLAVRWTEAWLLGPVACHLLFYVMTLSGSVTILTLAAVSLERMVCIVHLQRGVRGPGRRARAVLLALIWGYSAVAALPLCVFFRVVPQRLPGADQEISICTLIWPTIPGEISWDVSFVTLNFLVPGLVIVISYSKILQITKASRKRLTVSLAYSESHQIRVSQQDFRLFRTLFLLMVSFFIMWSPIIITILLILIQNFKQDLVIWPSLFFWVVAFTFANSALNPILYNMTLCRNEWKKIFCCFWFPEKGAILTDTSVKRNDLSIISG
# T1 sequence (P32121 whole entry partner): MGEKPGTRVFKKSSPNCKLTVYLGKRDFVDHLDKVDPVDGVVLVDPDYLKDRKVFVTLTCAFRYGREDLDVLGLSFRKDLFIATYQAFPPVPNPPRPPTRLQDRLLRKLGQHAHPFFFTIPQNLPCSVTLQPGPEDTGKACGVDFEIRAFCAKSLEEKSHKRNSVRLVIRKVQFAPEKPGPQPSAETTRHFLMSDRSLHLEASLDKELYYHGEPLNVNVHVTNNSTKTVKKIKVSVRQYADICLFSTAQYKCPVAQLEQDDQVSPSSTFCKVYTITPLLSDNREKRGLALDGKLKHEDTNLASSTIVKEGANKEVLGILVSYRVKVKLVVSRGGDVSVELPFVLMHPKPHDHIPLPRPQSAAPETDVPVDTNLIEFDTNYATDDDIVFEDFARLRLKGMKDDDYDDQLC
row,pEC50,Compound
1,6.79,"Cc1c(CCC(=O)O)ccc(OCC2=C(c3ccc(F)cc3)CCC2)c1C [Compound 4, 3-[4-[[2-(4-fluorophenyl)cyclopenten-1-yl]methoxy]-2,3-dimethyl-phenyl]Propanoic Acid]"
2,6.91,"Cc1c(CCC(=O)O)ccc(OCC2=C(c3ccc(Cl)cc3)CCC2)c1C [Compound 15, 3-(4-((2-(4-chlorophenyl)cyclopent-1-en-1-yl)methoxy)-2,3-dimethylphenyl)Propanoic Acid]"
3,6.83,"CCc1ccc(C2=C(COc3c(F)cc(CCC(=O)O)cc3F)CCC2)cc1 [Compound 16, 3-(4-((2-(4-ethylphenyl)cyclopent-1-en-1-yl)methoxy)-3,5-difluorophenyl)Propanoic Acid]"
4,< 5.30,"Cc1c(CCC(=O)O)ccc(OCC2=C(c3ccc(OC(F)(F)F)cc3)CCC2)c1C [Compound 20, 3-(2,3-dimethyl-4-((2-(4-(trifluoromethoxy)phenyl)cyclopent-1-en-1-yl)methoxy)phenyl)Propanoic Acid]"
5,6.47,"Cc1c(CCC(=O)O)ccc(OCC2=C(c3ccccc3)CCC2)c1C [Compound 23, 3-(2,3-dimethyl-4-((2-phenylcyclopent-1-en-1-yl)methoxy)phenyl)Propanoic Acid]"
6,7.05,"CCc1ccc(C2=C(COc3ccc(CCC(=O)O)c(F)c3F)CCC2)cc1 [Compound 25, 3-(4-((2-(4-ethylphenyl)cyclopent-1-en-1-yl)methoxy)-2,3-difluorophenyl)Propanoic Acid]"
7,7.11,"CCc1ccc(C2=C(COc3ccc(CCC(=O)O)c(C)c3C)CCC2)cc1 [Compound 27, 3-(4-((2-(4-ethylphenyl)cyclopent-1-en-1-yl)methoxy)-2,3-dimethylphenyl)Propanoic Acid]"
8,6.56,"O=C(O)CCc1ccc(OCC2=C(c3ccc(Cl)cc3)CCC2)cc1F [Compound 47, 3-[4-[[2-(4-chlorophenyl)cyclopenten-1-yl]methoxy]-2-fluoro-phenyl]Propanoic Acid]"
9,6.56,"Cc1c(CCC(=O)O)ccc(OCC2=C(c3cccc(Cl)c3)CCC2)c1C [Compound 58, 3-[4-[[2-(3-chlorophenyl)cyclopenten-1-yl]methoxy]-2,3-dimethyl-phenyl]Propanoic Acid]"
10,6.44,"O=C(O)CCc1cc(F)c(OCC2=C(c3ccc(Cl)cc3)CCC2)c(F)c1 [Compound 60, 3-[4-[[2-(4-chlorophenyl)cyclopenten-1-yl]methoxy]-3,5-difluoro-phenyl]Propanoic Acid]"
11,7.12,"Cc1cc(CCC(=O)O)ccc1OCC1=C(c2ccc(Cl)cc2)CCC1 [Compound 62, 3-[4-[[2-(4-chlorophenyl)cyclopenten-1-yl]methoxy]-3-methyl-phenyl]Propanoic Acid]"
12,5.79,"COc1cc(F)cc(C2=C(COc3ccc(CCC(=O)O)c(C)c3C)CCC2)c1 [Compound 65, 3-[4-[[2-(3-fluoro-5-methoxy-phenyl)cyclopenten-1-yl]methoxy]-2,3-dimethyl-phenyl]Propanoic Acid]"
13,6.20,"Cc1c(CCC(=O)O)ccc(OCC2=C(c3ccc(Cl)c(Cl)c3)CCC2)c1C [Compound 66, 3-[4-[[2-(3,4-dichlorophenyl)cyclopenten-1-yl]methoxy]-2,3-dimethyl-phenyl]Propanoic Acid]"
14,7.14,"O=C(O)CCc1ccc(OCC2=C(c3ccc(Cl)cc3)CCC2)c(F)c1F [Compound 70, 3-[4-[[2-(4-chlorophenyl)cyclopenten-1-yl]methoxy]-2,3-difluoro-phenyl]Propanoic Acid]"
15,6.19,"Cc1ccc(C2=C(COc3ccc(CCC(=O)O)c(F)c3F)CCC2)c(C)c1 [Compound 72, 3-(4-((2-(2,4-dimethylphenyl)cyclopent-1-en-1-yl)methoxy)-2,3-difluorophenyl)Propanoic Acid]"
16,6.55,"Cc1c(CCC(=O)O)ccc(OCC2=C(c3ccccc3Cl)CCC2)c1C [Compound 76, 3-[4-[[2-(2-chlorophenyl)cyclopenten-1-yl]methoxy]-2,3-dimethyl-phenyl]Propanoic Acid]"

row,pEC50,Compound
1,6.43,"Cc1c(CCC(=O)O)ccc(OCC2=C(c3cccs3)CCC2)c1C [Compound 77, 3-[2,3-dimethyl-4-[[2-(2-thienyl)cyclopenten-1-yl]methoxy]phenyl]Propanoic Acid]"
2,7.12,"Cc1ccc(C2=C(COc3ccc(CCC(=O)O)c(F)c3F)CCC2)cc1F [Compound 78, 3-(2,3-difluoro-4-((2-(3-fluoro-4-methylphenyl)cyclopent-1-en-1-yl)methoxy)phenyl)Propanoic Acid]"
3,6.22,"Cc1c(CCC(=O)O)ccc(OCC2=C(c3nccs3)CCC2)c1C [Compound 79, 3-[2,3-dimethyl-4-[(2-thiazol-2-ylcyclopenten-1-yl)methoxy]phenyl]Propanoic Acid]"
4,5.96,Cc1ccc(C2=C(COc3ccc(CCC(=O)O)c(C)c3C)CCC2)c(C)c1 [Compound 82]
5,6.20,"Cc1ccc(C2=C(COc3ccc(CCC(=O)O)c(F)c3F)CCC2)cc1C [Compound 83, 3-(4-((2-(3,4-dimethylphenyl)cyclopent-1-en-1-yl)methoxy)-2,3-difluorophenyl)Propanoic Acid]"
6,6.27,"Cc1ccc(C2=C(COc3c(F)cc(CCC(=O)O)cc3F)CCC2)cc1C [Compound 84, 3-(4-((2-(3,4-dimethylphenyl)cyclopent-1-en-1-yl)methoxy)-3,5-difluorophenyl)Propanoic Acid]"
7,6.14,"Cc1ccc(C2=C(COc3ccc(CCC(=O)O)c(C)c3C)CCC2)cn1 [Compound 85, 3-(2,3-dimethyl-4-((2-(6-methylpyridin-3-yl)cyclopent-1-en-1-yl)methoxy)phenyl)Propanoic Acid]"
8,6.23,"Cc1c(CCC(=O)O)ccc(OCC2=C(c3cncs3)CCC2)c1C [Compound 88, 3-[2,3-dimethyl-4-[(2-thiazol-5-ylcyclopenten-1-yl)methoxy]phenyl]Propanoic Acid]"
9,6.23,"Cc1ccc(C2=C(COc3ccc(CCC(=O)O)c(F)c3F)CCC2)cc1N [Compound 93, 3-(4-((2-(3-amino-4-methylphenyl)cyclopent-1-en-1-yl)methoxy)-2,3-difluorophenyl)Propanoic Acid]"
10,7.12,"Cc1ccc(C2=C(COc3c(F)cc(CCC(=O)O)cc3F)CCC2)cc1 [Compound 95, 3-(3,5-difluoro-4-((2-(p-tolyl)cyclopent-1-en-1-yl)methoxy)phenyl)Propanoic Acid]"
11,6.44,"Cc1ccc(C2=C(COc3ccc(CCC(=O)O)cc3C)CCC2)cn1 [Compound 102, 3-(3-methyl-4-((2-(6-methylpyridin-3-yl)cyclopent-1-en-1-yl)methoxy)phenyl)Propanoic Acid]"
12,6.35,"Cc1c(CCC(=O)O)ccc(OCC2=C(c3ncccn3)CCC2)c1C [Compound 105, 3-[2,3-dimethyl-4-[(2-pyrimidin-2-ylcyclopenten-1-yl)methoxy]phenyl]Propanoic Acid]"
13,6.07,"Cc1ccc(C2=C(COc3ccc(CCC(=O)O)c(C)c3C)CCC2)cc1C [Compound 106, 3-(4-((2-(3,4-dimethylphenyl)cyclopent-1-en-1-yl)methoxy)-2,3-dimethylphenyl)Propanoic Acid]"
14,6.09,"Cc1c(CCC(=O)O)ccc(OCC2=C(c3cccnc3)CCC2)c1C [Compound 108, 3-[2,3-dimethyl-4-[[2-(3-pyridyl)cyclopenten-1-yl]methoxy]phenyl]Propanoic Acid]"
15,5.61,"Cc1ccc(C2=C(COc3c(F)cc(CCC(=O)O)cc3F)CCC2)cc1[N+](=O)[O-] [Compound 109, 3-(3,5-difluoro-4-((2-(4-methyl-3-nitrophenyl)cyclopent-1-en-1-yl)methoxy)phenyl)Propanoic Acid]"
16,5.57,"Cc1c(CCC(=O)O)ccc(OCC2=C(c3ccccc3Br)CCC2)c1C [Compound 111, 3-[4-[[2-(2-bromophenyl)cyclopenten-1-yl]methoxy]-2,3-dimethyl-phenyl]Propanoic Acid]"
